The text below walks through data of patent EP0741709B1, “AROMATIC 2-AMINO-IMIDAZOLE DERIVATIVES AS ALPHA-2A ADRENOCEPTOR AGONISTS” (Allergan Sales, Inc., priority 1994, dated 1995).

This experiment addresses T1, α2A receptor (Oryctolagus cuniculus, UniProt Q5ZQK3).
T1 construct: The prostatic ends of the vas deferens (2-3 cm) were removed from albino rabbits; from tissue; host or cells: rabbit vas deferens (prostatic end)
T1 sequence (Q5ZQK3 1-451): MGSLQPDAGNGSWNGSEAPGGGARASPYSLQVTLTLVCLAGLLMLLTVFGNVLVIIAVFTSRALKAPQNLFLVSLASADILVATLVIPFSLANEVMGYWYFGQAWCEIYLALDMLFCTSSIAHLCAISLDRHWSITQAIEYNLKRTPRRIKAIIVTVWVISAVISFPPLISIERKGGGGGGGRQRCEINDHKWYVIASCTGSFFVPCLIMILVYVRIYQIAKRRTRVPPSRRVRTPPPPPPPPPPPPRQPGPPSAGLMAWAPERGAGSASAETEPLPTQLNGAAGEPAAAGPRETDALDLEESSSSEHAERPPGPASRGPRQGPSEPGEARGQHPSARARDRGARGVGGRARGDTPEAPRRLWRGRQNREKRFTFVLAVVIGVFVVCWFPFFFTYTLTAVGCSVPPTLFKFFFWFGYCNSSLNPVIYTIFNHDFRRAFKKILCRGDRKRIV
The experiment is described as follows: Vas deferens functional assay: reduction of electrically evoked contractions. The format is cell-based. To be noted: field-stimulated isolated rabbit vas deferens, 50% reduction in peak height. The method, then:
Vas Deferens: The prostatic ends of the vas deferens (2-3 cm) were removed from albino rabbits and mounted between platinum electrodes in 9 mL organ baths containing Krebs-Hensleit solution of the following composition (mM): NaCl 119, KCl 4.7, MgSO4 1.5, KH2PO4 1.2. CaCl2 2.5, NaHCO3 25 and glucose 11. This solution was maintained at 35° C and bubbled with 95% O2 and 5% CO2. The tissue was equilibrated at 0.5 g tension for 30 minutes. The vas deferens strips were then field stimulated at 0.1 Hz, 2 msec, 90 mA using a square wave stimulator (World Precision Instruments A310 Accupulser / A385 Stimulus Isolater), or a Grass S48 stimulator at 0.1 Hz, 2 msec, 70 volts. After 30 minutes of electrical stimulation, cumulative concentration-response curves in 0.25 log units were obtained with a 4 minute contact time for each concentration. Each tissue was used to evaluate only one drug. Tissue contractions produced by the field stimulation were measured isometrically using Grass FT-.03 force-displacement transducers and recorded on a Grass Model 7D physiograph. The reduction in electrically-evoked peak height by the drugs was measured and expressed as a percentage of the pre-drug peak height.
Representative compounds of the present invention, and comparative examples, were tested according to the procedures given above. The receptor binding studies and […] are measures of the affinity of a compound for a particular receptor. The vas deferens assay is a measure of the degree of activation of the α2A affected when a compound binds to that receptor.

As usually defined, the EC50 is the midpoint of the concentration-response curve. Lower therefore signals an effect from little substance. `c1ccc(Nc2ncc[nH]2)cc1` registered an EC50 of 56200 nM. As for `Clc1cccc(Cl)c1Nc1ncc[nH]1`, a half-maximal response (EC50) required 86.3 nM. `Brc1c(Nc2ncc[nH]2)ccc2nccnc12` registered an EC50 of 49.4 nM. The value for `Cc1c(Nc2ncc[nH]2)ccc2nccnc12` was 35.3 nM; that for `Cc1c(Nc2ncc[nH]2)ccc2c1OCCO2` was 1.61 nM.
